“And” between values parts separate entries of the source, which are not always exact repeats. Equal entries are not always repeated. Inconclusive results and toxic doses are left out. Cut-off read from the data, not from the text of the source: active = T/C of 150% or more; inactive = T/C below 125%.
System: L1210 leukemia ip in BDF1 mice, survival T/C
Assay: NCI In Vivo Anticancer Drug Screen. Data for tumor model L1210 Leukemia (intraperitoneal) in B6D2F1 (BDF1) mice
Conditions: higher = longer survival
Procedure, shortened: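 Ratio derived from survival: compound-dosed mice over vehicle-dosed mice, all bearing a transplantable tumor.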

[1] = endpoint: mean survival time, dose: 100.0 mg/kg/injection, schedule: Q01DX009 (ip), vehicle: saline with Tween-80
[2] = endpoint: mean survival time, dose: 100.0 mg/kg/injection, schedule: Q04DX003 (ip), vehicle: saline with Tween-80
[3] = endpoint: mean survival time, dose: 200.0 mg/kg/injection, schedule: Q04DX003 (ip), vehicle: saline with Tween-80
[4] = endpoint: mean survival time, dose: 100.0 mg/kg/injection, schedule: Q01DX009 (ip), vehicle: Klucel (hydroxypropylcellulose) (HPC)
[5] = endpoint: mean survival time, dose: 25.0 mg/kg/injection, schedule: Q01DX009 (ip), vehicle: Klucel (hydroxypropylcellulose) (HPC)
[6] = endpoint: mean survival time, dose: 50.0 mg/kg/injection, schedule: Q01DX009 (ip), vehicle: Klucel (hydroxypropylcellulose) (HPC)
[7] = endpoint: mean survival time, dose: 100.0 mg/kg/injection, schedule: Q04DX003 (ip), vehicle: Klucel (hydroxypropylcellulose) (HPC)
[8] = endpoint: mean survival time, dose: 200.0 mg/kg/injection, schedule: Q04DX003 (ip), vehicle: Klucel (hydroxypropylcellulose) (HPC)
[9] = endpoint: mean survival time, dose: 400.0 mg/kg/injection, schedule: Q04DX003 (ip), vehicle: Klucel (hydroxypropylcellulose) (HPC)
[10] = endpoint: mean survival time, dose: 200.0 mg/kg/injection, schedule: Q01DX009 (ip), vehicle: saline with Tween-80
[11] = endpoint: mean survival time, dose: 100.0 mg/kg/injection, schedule: Q04DX003 (ip), vehicle: saline
[12] = endpoint: mean survival time, dose: 200.0 mg/kg/injection, schedule: Q04DX003 (ip), vehicle: saline
[13] = endpoint: mean survival time, dose: 400.0 mg/kg/injection, schedule: Q04DX003 (ip), vehicle: saline

Measured: T/C

COC(=O)Nc1cccc(NC(=O)C(=O)O)c1
inactive: endpoint: mean survival time, dose: 25.0 mg/kg/injection, schedule: Q01DX009 (ip), vehicle: saline with Tween-80 105 % of control | endpoint: mean survival time, dose: 25.0 mg/kg/injection, schedule: Q04DX003 (ip), vehicle: saline with Tween-80 107 % of control | endpoint: mean survival time, dose: 50.0 mg/kg/injection, schedule: Q01DX009 (ip), vehicle: saline with Tween-80 98 % of control | endpoint: mean survival time, dose: 50.0 mg/kg/injection, schedule: Q04DX003 (ip), vehicle: saline with Tween-80 105 % of control | [1] 102 % of control | [2] 94 % of control and 100 % of control | [3] 105 % of control

CCOc1ccc(/C=N/NC(=O)Cc2cccc3ccccc23)cc1OC
inactive: [4] 95 % of control | endpoint: mean survival time, dose: 200.0 mg/kg/injection, schedule: Q01DX009 (ip), vehicle: Klucel (hydroxypropylcellulose) (HPC) 98 % of control | endpoint: mean survival time, dose: 400.0 mg/kg/injection, schedule: Q01DX009 (ip), vehicle: Klucel (hydroxypropylcellulose) (HPC) 97 % of control

ICc1cc(CI)c(CI)cc1CI
inactive: [2] 92 % of control | [3] 91 % of control | endpoint: mean survival time, dose: 400.0 mg/kg/injection, schedule: Q04DX003 (ip), vehicle: saline with Tween-80 91 % of control

CC(O)C#CC(C)O (configuration not stated)
inactive: endpoint: mean survival time, dose: 12.5 mg/kg/injection, schedule: Q01DX009 (ip), vehicle: Klucel (hydroxypropylcellulose) (HPC) 89 % of control | endpoint: mean survival time, dose: 12.5 mg/kg/injection, schedule: Q04DX003 (ip), vehicle: Klucel (hydroxypropylcellulose) (HPC) 92 % of control | [5] 102 % of control | endpoint: mean survival time, dose: 25.0 mg/kg/injection, schedule: Q04DX003 (ip), vehicle: Klucel (hydroxypropylcellulose) (HPC) 96 % of control | [6] 103 % of control | endpoint: mean survival time, dose: 50.0 mg/kg/injection, schedule: Q04DX003 (ip), vehicle: Klucel (hydroxypropylcellulose) (HPC) 103 % of control

C#CCON(C(=O)Nc1ccc(Cl)cc1)C(=O)c1ccc(OC)cc1
inactive: [7] 88 % of control | [8] 86 % of control | [9] 93 % of control

CCN(CC)CCCOC(=O)c1ccccc1
inactive: endpoint: mean survival time, dose: 50.0 mg/kg/injection, schedule: Q01DX009 (ip), vehicle: saline 96 % of control | endpoint: mean survival time, dose: 100.0 mg/kg/injection, schedule: Q01DX009 (ip), vehicle: saline 100 % of control | endpoint: mean survival time, dose: 200.0 mg/kg/injection, schedule: Q01DX009 (ip), vehicle: saline 100 % of control

O=C(O)c1cccc2[nH]c(=O)oc(=O)c12
inactive: [1] 103 % of control | [10] 106 % of control

CCOC(=O)CNc1cccc(Br)c1
inactive: endpoint: mean survival time, dose: 100.0 mg/kg/injection, schedule: Q04DX002 (ip), vehicle: Klucel (hydroxypropylcellulose) (HPC) 107 % of control | endpoint: mean survival time, dose: 200.0 mg/kg/injection, schedule: Q04DX002 (ip), vehicle: Klucel (hydroxypropylcellulose) (HPC) 100 % of control | endpoint: mean survival time, dose: 400.0 mg/kg/injection, schedule: Q04DX002 (ip), vehicle: Klucel (hydroxypropylcellulose) (HPC) 103 % of control

Cc1nc(=S)[nH][nH]1
inactive: [1] 102 % of control | endpoint: mean survival time, dose: 100.0 mg/kg/injection, schedule: Q04DX002 (ip), vehicle: saline 103 % of control | [10] 122 % of control | endpoint: mean survival time, dose: 200.0 mg/kg/injection, schedule: Q04DX002 (ip), vehicle: saline 94 % of control | endpoint: mean survival time, dose: 400.0 mg/kg/injection, schedule: Q01DX009 (ip), vehicle: saline with Tween-80 96 % of control | endpoint: mean survival time, dose: 400.0 mg/kg/injection, schedule: Q04DX002 (ip), vehicle: saline 87 % of control

CC(C)(NC(=O)C(F)(F)F)C(=O)O
inactive: [11] 100 % of control | [12] 87 % of control | [13] 95 % of control

N#Cc1cc2c(N)[nH]nc2nc1N
inactive: [5] 89 % of control | [6] 93 % of control | [4] 86 % of control and 90 % of control | [7] 98 % of control | [8] 95 % of control | [9] 101 % of control

CCCCCCCCCCCCCCCC[As](=O)(O)O
inactive: [7] 121 % of control | [8] 93 % of control | [9] 90 % of control

CC(O)CC[P+](c1ccccc1)(c1ccccc1)c1ccccc1 (configuration not stated)
inactive: endpoint: mean survival time, dose: 75.0 mg/kg/injection, schedule: Q01DX001 (ip), vehicle: other 101 % of control | endpoint: mean survival time, dose: 150.0 mg/kg/injection, schedule: Q01DX001 (ip), vehicle: other 93 % of control

Cc1ccc(C(=O)NCc2ccc(CCc3nc(N)nc(N)c3-c3ccc(Cl)c(Cl)c3)cc2)cc1S(=O)(=O)F
inactive: endpoint: mean survival time, dose: 100.0 mg/kg/injection, schedule: Q01DX001 (ip), vehicle: saline with Tween-80 100 % of control | endpoint: mean survival time, dose: 200.0 mg/kg/injection, schedule: Q01DX001 (ip), vehicle: saline with Tween-80 110 % of control | endpoint: mean survival time, dose: 400.0 mg/kg/injection, schedule: Q01DX001 (ip), vehicle: saline with Tween-80 114 % of control

CC1(C)N=C(N)N=C(N)N1c1ccc(OCCNS(=O)(=O)c2cccc(S(=O)(=O)F)c2)c(Cl)c1
inactive: endpoint: median survival time, dose: 100.0 mg/kg/injection, schedule: Q01DX001 (ip), vehicle: Klucel (hydroxypropylcellulose) (HPC) 105 % of control | endpoint: median survival time, dose: 200.0 mg/kg/injection, schedule: Q01DX001 (ip), vehicle: Klucel (hydroxypropylcellulose) (HPC) 100 % of control | endpoint: median survival time, dose: 400.0 mg/kg/injection, schedule: Q01DX001 (ip), vehicle: Klucel (hydroxypropylcellulose) (HPC) 105 % of control

COc1ccc(NC(=O)c2ccc(C(=O)Nc3ccc(OC)cc3)cc2)cc1
inactive: [11] 92 % of control | [12] 97 % of control | [13] 92 % of control

C=C1C(=O)O[C@H]2C[C@@]3(C)[C@H](O)CCC(=C)[C@@H]3[C@@H](OC(C)=O)[C@H]12
inactive: endpoint: mean survival time, dose: 25.0 mg/kg/injection, schedule: Q04DX002 (ip), vehicle: saline with Tween-80 86 % of control | endpoint: mean survival time, dose: 50.0 mg/kg/injection, schedule: Q04DX002 (ip), vehicle: saline with Tween-80 93 % of control | endpoint: mean survival time, dose: 100.0 mg/kg/injection, schedule: Q04DX002 (ip), vehicle: saline with Tween-80 108 % of control and 90 % of control

Source: PubChem BioAssay AID248 (DTP/NCI, 2004)
